Measured values taken from US20060041959A1, “Control of plant growth and developmental process” (Universiteit Leiden, priority 2003, published 2006).
Entries after “also recorded” stand apart in the source; their conditions may differ.

Columns and labels:
[1] = system: wild-type arabiodopsis seeds (ecotype Columbia); assay: Germination and growth of wild-type Arabidopsis seedlings on ½MS medium containing plant growth substance; assay type: in vivo
Excerpt: (§1) It is thus likely that overexpression directly or indirectly leads to changes in the levels of plant growth substances. Plant cells affected in this manner can secrete regulatory signals affecting neighboring cells or tissues. It is thus shown herein that by using plant material overexpressing one or more members of the protein family described with the sequence identifiers mentioned, the development of other plant material (including non-transformed material) can be altered towards a more organogenic/embryogenic pathway.

[2] = system: mutant phenotypes caused by NM—115413.1/NM—106300.1 overexpression constructs; assay: Effect of plant growth substance on NM_115413.1/NM_106300.1 overexpressing mutant phenotypes; assay type: in vivo, Arabidopsis; conditions: applied to overexpressing lines
Excerpt: as §1

**Q.** Which results are given for `CC(C)[C@@H](C)[C@@H](O)[C@H](O)[C@@H](C)[C@H]1CC[C@H]2[C@@H]3COC(=O)[C@H]4C[C@H](O)[C@H](O)C[C@]4(C)[C@H]3CC[C@]12C` [24-epibrassinolide]?
**A.** seedling growth phenotype after germination on medium containing the substance ([1]; 4 μM in ½MS medium, 14 and 28 dag, controls 0.1% DMSO, FIG. 3): growth aberrations resembling those seen in NM—115413.1 or NM—106300.1 overexpressing seedlings can be observed; somatic embryogenesis in wild-type plants ([1]; wild-type plants, FIG. 3): somatic embryogenesis was not observed; ability to mimic the mutant phenotypes caused by overexpression constructs in wild-type plants ([1]; wild-type plants, compared with other plant growth substances investigated): can mimic some of the effects of overexpression of the proteins of the invention; also recorded: most profound effect on wild-type plants; effect on mutant (overexpression) phenotypes [2]: able to make the mutant phenotypes more vigorous
